Experimental data reported in patent US7629318B2, “Immunosuppressant compounds, methods and uses related thereto” (priority 2002, dated 2009).
Values joined by “and” are separate entries in the source; they are usually repeats but may differ in a detail not shown here. Equal entries are not always repeated. Numbered stars: 1 amine (or outer) side, 2 acyl side, 3 side chain; on linkers, the order of the positions; unused ones are H or OH. Square brackets hold non-standard residues; d marks the D form. Peptide text beside a SMILES is read from it. ξ: configuration not given here. Gly(1-amidinopiperidin-4-yl) = N=C(N)N1CCC([C@H](N)C(=O)O)CC1; X1 = CC(C)c1oc([C@H](CO)N[*:1])nc1C(=O)[*:2]; Pro(3R-Ph) = O=C(O)[C@H]1NCC[C@@H]1c1ccccc1; Met(O) = CS(=O)CC[C@H](N)C(=O)O; Tic = O=C(O)[C@@H]1Cc2ccccc2CN1; Cha = N[C@@H](CC1CCCCC1)C(=O)O; ξDisc = O=C(O)C1NCc2ccccc21

What was measured:
[1] = Stability of compounds in human blood plasma; type: in vitro ADME
Summary of the method: (§1)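 Compounds at 5 μM final in rat, mouse or human plasma, incubated at 37 °C and sampled at 0, 6 and 24 h. Proteins precipitated with acetonitrile and the supernatant dried and reconstituted in 50% acetonitrile/0.1% TFA. PBS controls run for unstable compounds.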

[2] = target: Cathepsin B1 (EC 3.4.22.1 from bovine spleen) (Bos taurus, UniProt P07688); conditions: Cathepsin B, 4 h
[3] = target: T1, Priess (DR4Dw4: DRA1*0101 DRB1*0401) cells (Homo sapiens, UniProt P01903+P01911, A100K/A169T/F76Y/I96L/K127E/L162R/M171V/N62H/P40V/Q125Y/R42H/S133A/S149N/S66Y/V115G/V209L/W38E); assay: Competitive binding to MHC II proteins expressed on Priess cells; type: cell-based
T1 construct: MHC II Proteins Expressed on PRIESS and LG2 Cells; endogenous in cells; host or cells: Priess cells
Method: (§2) For use in the binding assay the cells were re-suspended in medium containing 1% FCS at a density of 2.5×10^6 cells/ml.
(§3) The assay was performed in sterile 96 well polystyrene microtiter plates. A 10 fold dilution series of compounds (16 nM-1615 μM) in 1% FCS was prepared from 5 or 10 mM compound stock solutions in 10% DMSO/water. 50 μl of each compound dilution were added in duplicates to 50 μl of a 16 μM solution of indicator peptide in 1% FCS. Cell binding was initiated by adding 100 μl of 2.5×10^6 cells/ml 1% FCS to each well. Controls were included containing the DMSO concentration present in the solution with the highest compound concentration. The cells were incubated at 37° C., 6% CO2. After 4 hours the cells were washed with 200 μl PBS and lysed in 200 μl lysis buffer (50 mM sodium phosphate, 150 mM sodium chloride, 1% (w/v) NP-40, 25 mM iodoacetamide, 1 mM PMSF, 3.1% protease inhibitor cocktail: 0.32 g/l of Chymostatin, Antipain, Pepstatin A, Soybean trypsin inhibitor and Leupeptin each, pH 7.5) for 10 min.
(§4) After washing with PBS, 190 μl of cell lysate were transferred to the appropriate wells of the capture plate and incubated for 2 h at 4° C. The wells were washed six times with 200 μl/well cooled (4 to 8° C.) of 1×DELFIA wash (Wallac-ADL-GmbH, Freiburg), incubated with 100 μl of cooled Europium-streptavidin conjugate (Wallac-ADL-GmbH, Freiburg; diluted 1/1000 with DELFIA assay buffer) for 30 minutes at 4° C., again washed six times with cooled 1×DELFIA wash and, finally, incubated with 200 μl cooled DELFIA enhancement solution (Wallac-ADL-GmbH, Freiburg) for one hour at room temperature before reading the time-resolved europium fluorescence at λex Eu^3+: 340 nm and λem Eu^3+: 613 (615) nm (Wallac Victor^2 1420 Multilabel Counter, Wallac-ADL-GmbH, Freiburg).

[4] = Stability of compounds in rat blood plasma; type: in vitro ADME
Summary of the method: as §1

[5] = Stability of compounds in mouse blood plasma; type: in vitro ADME
Summary of the method: as §1

[6] = target: Cathepsin D (EC 3.4.23.5 from bovine spleen) (Bos taurus, UniProt P80209)
Method: The stability of the peptidomimetic compounds towards lysosomal degradation was examined by incubation with Cathepsin B1 (EC 3.4.22.1 from bovine spleen; Sigma-Aldrich, Taufkirchen; dissolved at 10000 U/l in ddH2O) and D (EC 3.4.23.5 from bovine spleen; Sigma-Aldrich, Taufkirchen; dissolved at 10000 U/l in ddH2O) for four hours at 37° C. using a compound concentration of 50 μM and an enzyme/substrate ratio of 0.4 U/μmol. The samples contained 25 ppm 4-isopropyl benzyl alcohol (IPBA; Sigma-Aldrich, Taufkirchen) as internal standard.
Assay buffer was prepared by adding 35 μl of a 1% IPBA in DMSO solution and 28 μl of a 10000 U/l Cathepsin B1 or Cathepsin D stock solution to 14 ml of 100 mM sodium acetate, 1 mM EDTA, 1 mM DTT, pH 5.00 or 100 mM sodium acetate, pH 4.50, respectively. 8.8 μl of a 5 mM (or 4.4 μl of a 10 mM) compound stock solution (in 10% DMSO/water) were placed into a 1.5 ml Eppendorf tube. The reaction was started by adding 875 μl fully supplemented assay buffer to each tube, whirlmixing and incubation at 37° C. At 0 and 4 hours 400 μl samples were taken and the enzyme was inactivated by addition of 40 μl […] TFA aq. The samples were kept frozen at −20° C. until analysis by RP-HPLC (200 μl injection volume; Nucleosil 100-5 C18, 12.5×4.6 cm; Gradient: 20-50% acetonitrile in 30 min).
Compounds co-eluting with the internal standard during RP-HPLC analysis were tested without the standard as Example 16.

[7] = target: T2, LG2 (DR1: DRA1*0101 DRB1*0101) cells (Homo sapiens, UniProt P01903+P01911, A100R/D57E/F55L/F60I/F76Y/I96L/L162R/M171V/P40L/Q125E/R42F/V115G/Y59C); assay: Competitive binding to MHC II proteins expressed on LG2 cells; type: cell-based; conditions: Cell binding IC50 (uM) LG2 (0101), LG2 (0101)
T2 construct: MHC II Proteins Expressed on PRIESS and LG2 Cells; endogenous in cells; host or cells: LG2 cells
Method: as §2, §3, §4

[8] = target: DR4Dw4 (DRA1*0101 DRB1*0401) (Homo sapiens, UniProt P01903+P01911, A100K/A169T/F76Y/I96L/K127E/L162R/M171V/N62H/P40V/Q125Y/R42H/S133A/S149N/S66Y/V115G/V209L/W38E); assay: Competitive binding to MHC-II protein DR4Dw4
Summary of the method: (§5)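 Each MHC-II allele incubated with compound 16 hours at room temperature in duplicate; controls lacked compound, or both compound and MHC-II. Complexes captured 2 h at 4 °C, bound biotinylated peptide detected via europium-streptavidin and DELFIA enhancement, time-resolved fluorescence read at ex 340/em 613 (615) nm.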

[9] = target: DR4Dw14 (DRA1*0101 DRB1*0404) (Homo sapiens, UniProt P01903+P01911, A100R/A169T/F76Y/I96L/K127E/L162R/M171V/N62H/P40V/Q125Y/R42H/S133A/S149N/S66Y/V209L/W38E); assay: Competitive binding to MHC-II protein DR4Dw14; conditions: 0404; read-out: Protein binding IC50 (nM) 0404
Summary of the method: as §5

[10] = target: DR1 (DRA1*0101 DRB1*0101) (Homo sapiens, UniProt P01903+P01911, A100R/D57E/F55L/F60I/F76Y/I96L/L162R/M171V/P40L/Q125E/R42F/V115G/Y59C); assay: Competitive binding to MHC-II protein DR1; conditions: Protein binding IC50 (nM) 0101, 0101
Summary of the method: as §5

[11] = system: T-cell proliferation, DR14-LN

Structure (SMILES)	Stability (Arbitrary units) Human 6 h [1] [Arbitrary units]	Stability (Arbitrary units) Human 24 h [1] [Arbitrary units]	Stability (Arbitrary units) Cath B 4 h [2] [Arbitrary units]	IC50 [3] [nM]	Stability (Arbitrary units) Rat 6 h [4] [Arbitrary units]	Stability (Arbitrary units) Rat 24 h [4] [Arbitrary units]	Stability (Arbitrary units) Mouse 6 h [5] [Arbitrary units]	Stability (Arbitrary units) Mouse 24 h [5] [Arbitrary units]	Stability (Arbitrary units) Cath D 4 h [6] [Arbitrary units]	IC50 [7] [µM]	IC50 [8] [nM]	IC50 [9]	IC50 [10] [nM]	Immunsupressive assays DR14-LN (Max) % Inhibition ([11]; maximal inhibition) [%]	IC50 ([11]; read-out: Immunsupressive assays DR14-LN (IC50)) [nM]
CC(=O)N[C@@H](CC1CCCCC1)C(=O)N[C@@H](CCCNC(=N)N)C(=O)N1Cc2ccccc2C[C@H]1C(=O)N[C@@H](CC[S+](C)[O-])C(=O)N1CC[C@H](c2ccccc2)[C@H]1C(=O)N[C@@H](CO)c1nc(C(=O)N(C)C)c(C(C)C)o1 (stereo partly drawn) [Compound P43, Ac-Cha-Arg-Tic-Met(O)-βPhPro-[S(oxaz)L]-NMe2] (Ac-[Cha]R[Tic][Met(O)][Pro(3R-Ph)][X1]-NMe2)	134	131	96	3100	96	71	96	82	101	13	320	1700 nM	380		
CSCC[C@H](NC(=O)C1c2ccccc2CN1C(=O)[C@H](CCCNC(=N)N)NC(=O)[C@H](CC1CCCCC1)NC(C)=O)C(=O)N1CC[C@H](c2ccccc2)[C@H]1C(=O)N[C@@H](CO)c1nc(C(=O)N(C)C)c(C(C)C)o1 (stereo partly drawn) [Compound P40-1, Ac-Cha-Arg-Disc-Met-βPhPro-[S(oxaz)L]NMe2] (Ac-[Cha]R[ξDisc]M[Pro(3R-Ph)][X1]-NMe2)	108	103	99	3000	111	71			93	8	270	98 nM	140		
CSCC[C@H](NC(=O)[C@@H]1Cc2ccccc2CN1C(=O)[C@@H](NC(=O)[C@H](CC1CCCCC1)NC(C)=O)C1CCN(C(=N)N)CC1)C(N)=O [Compound P67, Ac-Cha-Gpg-Tic-Met-NH2] (Ac-[Cha][Gly(1-amidinopiperidin-4-yl)][Tic]M-NH2)	97	100	58	4500	10	34	71	16	113	4.5	410	1060 nM and 1080 nM	120		
CSCC[C@H](NC(=O)[C@@H]1Cc2ccccc2CN1C(=O)[C@@H](NC(=O)[C@H](CC1CCCCC1)NC(C)=O)C1CCN(C(=N)N)CC1)C(=O)N1CC[C@H](c2ccccc2)[C@H]1C(N)=O [Compound P80, Ac-Cha-Gpg-Tic-Met-βPhProNH2] (Ac-[Cha][Gly(1-amidinopiperidin-4-yl)][Tic]M[Pro(3R-Ph)]-NH2)	139	134	90	2700	102	39	106	123	84	2.7	670	470 nM	550	88	94000
